Measurements reported in patent US10188629B2, “Prodrug of green tea epigallocatechin-3-gallate (pro-EGCG) for use in the treatment of endometriosis” (The Hong Kong Polytechnic University, priority 2012, dated 2019).
“Also recorded” adds a separate entry of the source.

Experiments:
[1] = system: endometriotic lesions (experimental endometriosis); test: Lesion size, weight and histology at end of intervention; assay type: in vivo, mice; settings: for lesion size compared to control group / lesion weight compared to control group / development and histology of the endometriotic lesions: after 4 weeks i.p. once per day; for lesion size compared to control group / lesion weight compared to control group: EGCG, pro-EGCG 50 mg/kg, vitamin E 20 mg/kg; for development and histology of the endometriotic lesions: microscopic examination
Excerpt: (§1) In this study, endometrial tissues from eight-week-old female CMV-Luc mice (n=15) were acquired for transplantation into nonluminescent NOD-SCID mice (n=32). The mouse endometrium was obtained during the proliferating estrous stage, and biopsies 2 mm in diameter were obtained with a sterile dermal biopsy punch (Miltex, NY). The biopsies were immediately washed in prewarmed, phenol-red-free DMEM/F-12 medium (Sigma) to remove residual blood and mucus, and the samples were maintained in serum-free DMEM/F-12 medium before transplantation (Bruner-Tran K L, et al. J Clin Endocrinol Metab 2009; 94:2489-94). Cultured endometrial biopsies were randomly allocated for transplantation.
(§2) Five mouse endometrial biopsies per treatment group were implanted into a single subcutaneous pocket created is the abdominal wall of the mice along the ventral midline immediately below the umbilicus. All of the surgical procedures were performed under general anesthesia with isoflurane (Baxter, IL), and the mice were monitored until they fully recovered.
At the end of intervention, size of the endometriotic lesions was determined as the longest length and perpendicular width according to a venire caliper and was calculated as 0.52×width^2×length in mm^3. The endometrial implants, together with subcutaneous and muscle layers, were removed from the abdomen wall for detailed histological examination and specific staining analysis.
Paraffin sections (n=4 per group) were prepared for standard hematoxylin and eosin (H&E) staining, angiogenesis immunostaining and TUNEL staining as previously described (Xu H, et al. Hum Reprod 2009; 24:608-18.). Immunohistochemistry staining of in situ angiogenesis was performed by the immunoperoxidase method using a MACH 3 HRP Polymer Kit (Biocare Medical, Concord), and counterstained using methyl green or blue solution.

[2] = cited from earlier work
[3] = Oxygen radical absorbance capacity (ORAC) in plasma and lesions; assay type: in vivo, mice; settings: for ORAC in endometriotic lesions compared between treatment groups / ORAC in endometriotic lesions compared to saline group: lesions after intervention; for ORAC in plasma compared between treatment groups / ORAC in plasma compared to saline group: plasma during intervention
Excerpt: Pharmacokinetics of EGCG and pro-EGCG in the animals were studied by measuring the corresponding EGCG and pro-EGCG concentrations (EGCG in the EGCG group, pro-EGCG in the pro-EGCG group) in plasma during the intervention and also in lesions at the end of intervention. EGCG and pro-EGCG were quantified by analytical methods as previously described (Lam W H, et al. Bioorg Med Chem. 2004; 510:69-93; Chu K O, et al. J Chromat B 2004; 810:187-95; Chu K O, et al. Anal Chim Acta 2004; 510:69-76). Anti-oxidative and anti-angiogenesis capacities of the samples were also studied by measuring oxygen radical absorbance capacity (ORAC) using a modified phycoerythrin fluorescence decay assay as previously described (Wang C C, et al. Clin Chem 2004; 50:952-4), and vascular endothelial growth factor (VEGF) concentrations were measured using a commercial ELISA kit (Uscn Life Science Inc., TX) according to the manufacturer's manual. Blood samples (n=8 per group) were collected from the tail vein once per week, and plasma was prepared by immediate centrifugation. Implants without subcutaneous and muscle layers (n=4 per group) were removed from the abdominal wall, and the endometriotic lesions were frozen. All of the samples were kept in −80° C. prior to analysis.

[4] = system: endometriotic lesions (experimental endometriosis); test: Growth of luminescent endometriotic lesions monitored weekly by IVIS bioluminescence imaging; assay type: in vivo, mice; settings: for lesion bioluminescence relative to baseline levels / lesion bioluminescence intensity compared with saline group: i.p. once per day, 4 weeks, EGCG, pro-EGCG 50 mg/kg; for lesion bioluminescence intensity compared with saline group: vitamin E 20 mg/kg
Excerpt: Based on our previous study, an immune-compromised mouse model of experimental endometriosis was created by subcutaneous transplantation of human or mouse tissues to assess the anti-angiogenic effects and mechanisms of green tea catechin (Xu H, et al. Hum Reprod 2009; 24:608-18; Xu H, et al. Fertil Steril 2011; 96:1021-8).
as §1, §2
Development and angiogenesis of the experimental endometriosis were monitored using various in vivo imaging systems. During the intervention, growth of the endometriotic lesions (n=8 per group) was monitored each week by measuring the bioluminescence of the subcutaneous luciferase-positive implants using a non-invasive IVIS 200 live animal imaging system (Xenogen) as previously described (Song C, et al. Hum Gene Ther, 2011; 22:439-49). A total of 150 mg/kg of luciferin was injected intraperitoneally […] 10 mins prior to imaging. An image from each animal was captured at bin size 4 in triplicate, and the bioluminescence signal intensities were averaged for comparison.

[5] = General tolerability and body weight during the intervention; settings: i.p. once per day, 4 weeks; EGCG, pro-EGCG 50 mg/kg, vitamin E 20 mg/kg
Procedure: Immediately after the transplantation, the mice were randomly assigned to receive either vehicle (n=8; sham control), vitamin E (n=8; anti-oxidant control, 20 mg/kg), EGCG (n=8; anti-angiogenesis control, 50 mg/kg, ≈1.5 mg/30 g) or pro-EGCG (n=8; 50 mg/kg).
Dulbecco's phosphate-buffered saline (PBS, Sigma) was used as solvent to dissolve the drugs. These doses were selected because their significant an angiogenic and anti-oxidative effects have been reported in mice (Sang S, et al. Chem Res Toxicol 2005; 18:1762-9; Villayandre B M, et al. Brain Research 2004; 1028, 148-55). The treatments were administered once per day via intraperitoneal injections for a consecutive 4-week period.

cancer cells = settings: cited from earlier work
[6] = system: human prostate, breast, leukemic, and simian virus 40-transformed cells; settings: cited from earlier work
[7] = after 4 weeks, 50 mg/kg i.p. once per day

O=C(O[C@@H]1Cc2c(O)cc(O)cc2O[C@@H]1c1cc(O)c(O)c(O)c1)c1cc(O)c(O)c(O)c1 [EGCG, (−)-epigallocatechin-3-gallate]
lesion size compared to control group [1]: significantly decreased
lesion weight compared to control group [1]: significantly decreased
development and histology of the endometriotic lesions [1]: poorly developed; also recorded: small and loosely attached to the adjacent tissues
bioavailability [2]: poor bioavailablity
stability under physiological conditions ([2]; physiological conditions): notably unstable
ORAC in endometriotic lesions compared between treatment groups [3]: not significantly different from the vitamin E group
ORAC in endometriotic lesions compared to saline group [3]: significantly increased
ORAC in plasma compared between treatment groups [3]: not significantly different from the vitamin E group
ORAC in plasma compared to saline group [3]: significantly increased
lesion bioluminescence relative to baseline levels [4]: maintained around the baseline levels
lesion bioluminescence intensity compared with saline group [4]: significantly lower than that of the saline group at the 2nd, 3rd and 4th weeks
signs of stress, intolerance or toxic responses to administration [5]: No signs of stress, intolerance to anesthesia, surgery or implantation or any toxic responses

CC(=O)Oc1cc(OC(C)=O)c2c(c1)O[C@H](c1cc(OC(C)=O)c(OC(C)=O)c(OC(C)=O)c1)[C@H](OC(=O)c1cc(OC(C)=O)c(OC(C)=O)c(OC(C)=O)c1)C2 [pro-EGCG, (−)-EGCG octaacetate]
cell death induction (cancer cells): cell death induction
proteasome inhibition (cancer cells): exhibited proteasome inhibition
lesion size compared to control group [1]: significantly decreased
lesion weight compared to control group [1]: significantly decreased
development and histology of the endometriotic lesions [1]: poorly developed; also recorded: degraded and almost detached from the peritoneal muscle layers
lesion size compared with EGCG-treated mice [1, 7]: significantly smaller
lesion weight compared with EGCG-treated mice [1, 7]: lighter
potency in inhibition of proliferation and transforming activity and induction of apoptosis, compared with EGCG [6]: much higher potency than EGCG
ORAC in endometriotic lesions compared between treatment groups [3]: significantly higher than in the EGCG and vitamin E groups
ORAC in endometriotic lesions compared to saline group [3]: significantly increased
ORAC in plasma compared between treatment groups [3]: significantly higher than in the EGCG and vitamin E groups
ORAC in plasma compared to saline group [3]: significantly increased
lesion bioluminescence intensity compared with EGCG group ([4]; 50 mg/kg i.p. once per day, 2nd, 3rd and 4th weeks): significantly lower than that of both the saline group and the EGCG group at the 2nd, 3rd and 4th weeks
lesion bioluminescence relative to baseline levels [4]: decreased further below the baseline levels
lesion bioluminescence intensity compared with saline group [4]: significantly lower than that of both the saline group and the EGCG group at the 2nd, 3rd and 4th weeks
